Results reported in patent US12552802B2, “Fused [7,5] bicyclic pyrazole derivatives and methods of use thereof for the treatment of herpesviruses” (Merck Sharp & Dohme LLC, priority 2020, dated 2026).

Tests used:
[1] = tested on: HSV2; assay: Viral qPCR assay, HSV2 in Vero cells; format: cell-based; conditions: Human alphaherpesvirus 2, ~72 hrs, viral genome copies by qPCR, read-out: HSV2 VERO Cell (EC50)
Description: (§1) MRC5 cells, Vero cells, and MeWo cells were obtained from ATCC and were maintained at 37° C./5% CO2/90% relative humidity in Minimal Essential Medium with 10% fetal bovine serum, […] L-glutamine, 100 units/ml penicillin and 100 ug/ml streptomycin. Assay plates were prepared by dispensing compounds dissolved in DMSO into wells of 384 well collagen-coated plates using an ECHO acoustic dispenser. Each compound was tested in a 10-point, serial 3-fold dilution. Controls included uninfected cells and infected cells treated only with DMSO. Assays were initiated by mixing selected cells, in suspension, with virus, and dispensing 50 μl/well infected cells to pre-plated compounds. Plates were incubated at 37° C./5% CO2/90% relative humidity for ˜72 hrs to permit genomic replication, and infected cells were lysed by the addition of an equal volume of lysis buffer (10 mM Tris-HCl, pH8, 50 mM KCl, 2 mM MgCl2, 0.45% NP-40, 0.45% Tween-20, and 100 μg/ml proteinase K). […] Levels of a viral gene and of the cellular control, PPIA (Thermo Fisher Assay ID=Hs04194521_s1), were measured in separate 10 μL qPCR assays using TaqMang Gene Expression Master Mix (Applied Biosystems), and an 7900HT Fast Real-Time PCR System with 384-Well Block Module. 7-point, serial 10-fold dilutions of a plasmid standard were run on each plate to generate a standard curve, and genome copies numbers were calculated by plotting experimental Ct onto linear regression of the standard curve. […] Calculated % effects were fit using a 4-parameter algorithm, and EC50 was reported.
(§2) MRC5 cells, Vero cells, and MeWo cells were obtained from ATCC and were maintained at 37° C./5% CO2/90% relative humidity in Minimal Essential Medium with 10% fetal bovine serum, […] L-glutamine, 100 units/ml penicillin and 100 ug/ml streptomycin. […] Levels of a viral gene were measured in 10 μL qPCR assays using TaqMang Gene Expression Master Mix (Applied Biosystems), and an 7900HT Fast Real-Time PCR System with 384-Well Block Module. […]

[2] = tested on: VZV; assay: Viral qPCR assay, VZV in MeWo cells; format: cell-based, varicella zoster virus; conditions: Human alphaherpesvirus 3, ~72 hrs, viral genome copies by qPCR, read-out: VZV MEWO Cell (IC50)
Description: as §1, §2

[3] = molecular target: T1, Human cytomegalovirus (HCMV) DNA polymerase (Human cytomegalovirus, UniProt P08546); assay: HCMV polymerase assay; format: biochemical; conditions: polymerase 0.2 nM, AlphaLISA detection; read-out: CMV (IC50)
T1 construct: made in house; host or cells: SF21 insect cells (baculovirus vector)
Description: (§3) Human cytomegalovirus (HCMV) and varicella zoster virus (VZV) DNA polymerases were expressed via baculovirus vector in SF21 cells and purified. Heterodimeric nucleic acid substrate used in the herpesvirus polymerase reactions was generated by annealing a 59-mer template to a 17-mer digoxigenin-labeled primer. Polymerase (HCMV final concentration of 0.2 nM; VZV final concentration of 0.4 nM) was combined with an inhibitor compound or DMSO in assay buffer (10 mM HEPES, pH 7.5, 25 mM KCl, 25 mM NaCl, 5 mM MgCl2, 5% glycerol, 0.67 mg/ml bovine serum albuminutes (albuminate?), and 1 mM tris(2-carboxyethyl)phosphine), and this mixture was pre-incubated for 30 minutes at room temperature in 384-well microtiter plates. The polymerization reaction was initiated by the addition of template/primer substrate (final concentration: 1.6 nM), and dNTPs (final concentration: 24 nM dCTP, 24 nMdGTP, 16 nM dATP, 16 nM dTTP, and 0.8 nM biotin-dUTP). After 60 minutes incubation at 37° C., reactions were terminated with quench buffer (25 mM HEPES pH 7.5, 100 mM NaCl, 0.25% Tween-20, 12 mM EDTA, and 1 mg/ml bovine serum albumin). Incorporation of biotinylated UTP was detected with 2.5-5 ug/ml anti-DIG AlphaLISA acceptor beads and 5-10 ug/ml streptavidin AlphaLISA donor beads (Perkin Elmer). Compound effects were normalized to the window defined by the controls (DMSO only and pre-quenched wells), and were fit using a 4-parameter algorithm to report an IC50.

[4] = molecular target: T2, varicella zoster virus (VZV) DNA polymerase (Varicella-zoster virus, UniProt P09252); assay: VZV polymerase assay; format: biochemical; conditions: polymerase 0.4 nM, AlphaLISA detection
T2 construct: made in house; host or cells: SF21 insect cells (baculovirus vector)
Description: as §3

[5] = tested on: HSV-1 Strain F; assay: Viral qPCR assay, HSV1 in Vero cells; format: cell-based; conditions: Human alphaherpesvirus 1, ~72 hrs, viral genome copies by qPCR, read-out: HSV1 VERO Cell (EC50)
Description: as §1, §2

[6] = tested on: HCMV Strain AD169; assay: Viral qPCR assay, CMV in MRC5 cells; format: cell-based, Human cytomegalovirus; conditions: Human betaherpesvirus 5, AD169, ~72 hrs, viral genome copies by qPCR, read-out: CMV MRC5 Cell (EC50)
Description: as §1, §2

T1 sequence (P08546 whole entry): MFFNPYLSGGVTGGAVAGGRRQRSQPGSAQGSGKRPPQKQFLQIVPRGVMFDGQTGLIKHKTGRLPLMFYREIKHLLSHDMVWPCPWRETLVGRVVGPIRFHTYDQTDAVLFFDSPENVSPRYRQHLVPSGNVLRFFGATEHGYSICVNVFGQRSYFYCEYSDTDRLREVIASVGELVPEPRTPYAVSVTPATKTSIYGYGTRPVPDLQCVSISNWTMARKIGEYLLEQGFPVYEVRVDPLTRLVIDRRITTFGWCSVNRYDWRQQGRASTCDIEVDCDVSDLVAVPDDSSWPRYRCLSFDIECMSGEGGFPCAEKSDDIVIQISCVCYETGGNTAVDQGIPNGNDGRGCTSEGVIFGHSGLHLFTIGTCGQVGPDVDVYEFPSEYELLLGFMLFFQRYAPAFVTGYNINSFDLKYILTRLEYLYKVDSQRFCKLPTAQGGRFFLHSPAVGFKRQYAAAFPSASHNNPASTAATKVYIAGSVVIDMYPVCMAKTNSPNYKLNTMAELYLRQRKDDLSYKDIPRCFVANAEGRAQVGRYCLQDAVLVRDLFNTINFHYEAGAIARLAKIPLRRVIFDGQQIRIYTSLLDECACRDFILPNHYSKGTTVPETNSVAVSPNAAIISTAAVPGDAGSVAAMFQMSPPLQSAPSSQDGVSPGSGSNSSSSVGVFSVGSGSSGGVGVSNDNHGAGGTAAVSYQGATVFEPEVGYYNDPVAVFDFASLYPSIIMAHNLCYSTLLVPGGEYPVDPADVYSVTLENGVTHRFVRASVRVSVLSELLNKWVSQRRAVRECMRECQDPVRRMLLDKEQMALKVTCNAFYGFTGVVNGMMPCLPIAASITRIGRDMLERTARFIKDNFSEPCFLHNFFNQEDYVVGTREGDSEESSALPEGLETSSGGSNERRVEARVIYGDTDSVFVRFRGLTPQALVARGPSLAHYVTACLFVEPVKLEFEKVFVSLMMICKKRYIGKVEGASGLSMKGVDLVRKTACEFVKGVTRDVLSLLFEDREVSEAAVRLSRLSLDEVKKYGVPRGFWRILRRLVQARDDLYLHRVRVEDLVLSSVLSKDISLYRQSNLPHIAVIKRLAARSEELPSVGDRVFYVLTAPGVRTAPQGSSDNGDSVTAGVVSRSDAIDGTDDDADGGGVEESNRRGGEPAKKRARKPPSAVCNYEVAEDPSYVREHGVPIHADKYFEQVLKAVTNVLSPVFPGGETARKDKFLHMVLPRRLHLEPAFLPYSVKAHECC
T2 sequence (P09252 whole entry): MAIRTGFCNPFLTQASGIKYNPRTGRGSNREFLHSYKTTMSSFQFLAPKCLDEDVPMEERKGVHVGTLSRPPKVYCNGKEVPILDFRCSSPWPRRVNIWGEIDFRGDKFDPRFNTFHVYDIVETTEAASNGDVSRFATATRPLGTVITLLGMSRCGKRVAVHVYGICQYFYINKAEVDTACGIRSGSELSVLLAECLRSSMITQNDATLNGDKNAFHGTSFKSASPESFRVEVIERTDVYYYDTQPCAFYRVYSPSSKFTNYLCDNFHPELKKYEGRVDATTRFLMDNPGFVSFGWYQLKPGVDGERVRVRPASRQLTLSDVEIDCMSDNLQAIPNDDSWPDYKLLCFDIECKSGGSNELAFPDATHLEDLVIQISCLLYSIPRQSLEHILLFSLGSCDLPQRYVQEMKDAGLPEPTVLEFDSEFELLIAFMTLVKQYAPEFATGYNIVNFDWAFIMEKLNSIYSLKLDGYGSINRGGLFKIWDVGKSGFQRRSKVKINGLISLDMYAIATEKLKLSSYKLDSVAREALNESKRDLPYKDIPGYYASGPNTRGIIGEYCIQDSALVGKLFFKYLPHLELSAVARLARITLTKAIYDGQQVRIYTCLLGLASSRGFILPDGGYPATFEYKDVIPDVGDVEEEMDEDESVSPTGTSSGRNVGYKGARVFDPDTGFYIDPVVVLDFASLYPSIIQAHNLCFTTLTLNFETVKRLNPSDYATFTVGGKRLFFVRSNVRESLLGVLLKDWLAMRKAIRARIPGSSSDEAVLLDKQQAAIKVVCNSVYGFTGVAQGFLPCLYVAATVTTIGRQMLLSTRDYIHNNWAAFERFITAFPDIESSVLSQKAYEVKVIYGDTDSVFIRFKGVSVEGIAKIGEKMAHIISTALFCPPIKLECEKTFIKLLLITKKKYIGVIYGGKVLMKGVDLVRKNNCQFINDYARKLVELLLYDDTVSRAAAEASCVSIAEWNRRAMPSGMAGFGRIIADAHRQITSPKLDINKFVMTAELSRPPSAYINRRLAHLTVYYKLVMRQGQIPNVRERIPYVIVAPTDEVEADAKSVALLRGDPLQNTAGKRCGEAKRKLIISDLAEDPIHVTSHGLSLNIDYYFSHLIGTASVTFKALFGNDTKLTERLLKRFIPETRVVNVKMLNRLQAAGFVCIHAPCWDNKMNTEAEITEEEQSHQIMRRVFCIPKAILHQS

Compound | EC50 [1] | IC50 [2] | IC50 [3] | IC50 [4] | EC50 [5] | EC50 [6]
Cn1nc(C(=O)NCc2ccc(Cl)cc2)c2c1CCN(C[C@H]1CCC(=O)N1)CC2 [Compound 2] | 5.68 µM | 2.99 µM | 0.762 µM | 0.251 µM | 3.27 µM | 8.68 µM
Cc1nnn(C)c1CN1CCc2c(C(=O)NCc3ccc(Cl)cc3)nn(C)c2CC1 [Compound 3] | 7.82 µM | 1.44 µM | 0.805 µM | 0.373 µM | 4.58 µM | 12.4 µM
Cn1nc(C(=O)NCc2ccc(Cl)cc2)c2c1CCN(C[C@H]1COC(=O)N1)CC2 [Compound 1] | 7.97 µM | 1.96 µM | 0.802 µM | 0.26 µM | 3.29 µM | 3.72 µM
